Where two headings read alike, the source gives them in different places.
What was measured:
[1] = target: recombinant Aga-I (alkaline-α-galactosidase I) (Cucumis melo, UniProt A0ABM3L1M0); assay: α-galactosidase assay of E. coli extracts: substrate specificity of recombinant Aga-I; assay type: biochemical; conditions: for activity of recombinant Aga-I with nitrophenyl substrates: recombinant Aga-I extract; for Activity (calculated specific activity): recombinant Aga-I, substrate 10 mM, pH 8
Method: α-galactosidase assay of E. coli extracts—α-galactosidase activity was assayed as described by Smart and Pharr [Smart and Pharr (1980) Plant Physiol. 66:731-734] and as performed by Gao and Schaffer (1999) Plant Physiol. 119:979-987]. Reaction was initiated by adding 50 μl enzyme aliquot to 200 μl McIlvaine buffer (made by mixing stock solutions of 0.1M citric acid and 0.2M sodium hydrogen phosphate to achieve pH of 5.0 and 7.0 for the assay of acid and alkaline activity, respectively) and 50 μl substrate (final concentration, 5 mM for pNPG and 10 mM for the natural substrates). Optimum pH for galactosidase activity was determined using the following reaction buffers: Mcllvaine buffer, over a pH range of 4 to 7, 100 mM Hepes buffer over a pH range of 7 to 8, or 50 mM Tris buffer over a pH range of 8 to 8.7. […] In addition, substrate concentration dependence of the reaction was measured by varying the substrate concentrations from 0-10 mM. Km and Vmax values were calculated using Lineweaver-Burk plots.

[2] = system: alkaline α-galactosidase from Cucurbita pepo leaves; conditions: cited from earlier work; for inhibition of the enzyme's activity by the reaction product: Gaudreault and Webb 1983; for affinity as substrate: Gaudreault and Webb
[3] = substrate: OC[C@H]1O[C@H](OC[C@H]2O[C@H](OC[C@H]3O[C@H](O[C@]4(CO)O[C@H](CO)[C@@H](O)[C@@H]4O)[C@H](O)[C@@H](O)[C@@H]3O)[C@H](O)[C@@H](O)[C@H]2O)[C@H](O)[C@@H](O)[C@H]1O; assay: purified protein, by the assay type; conditions: other: recombinant Aga-I, pH 8, Lineweaver-Burk plots
[4] = substrate: OC[C@H]1O[C@H](OC[C@H]2O[C@H](O[C@]3(CO)O[C@H](CO)[C@@H](O)[C@@H]3O)[C@H](O)[C@@H](O)[C@@H]2O)[C@H](O)[C@@H](O)[C@H]1O; assay: purified protein, by the assay type; conditions: other: recombinant Aga-I, pH 8, Lineweaver-Burk plots
[5] = pH and temperature dependence of α-galactosidase activity of recombinant Aga-I and Aga-II; assay type: biochemical; conditions: for pH of maximal α-galactosidase activity: extracts of transformed E. coli, pNPG, FIG. 4
Method: α-galactosidase assay of E. coli extracts—α-galactosidase activity was assayed as described by Smart and Pharr [Smart and Pharr (1980) Plant Physiol. 66:731-734] and as performed by Gao and Schaffer (1999) Plant Physiol. 119:979-987]. Reaction was initiated by adding 50 μl enzyme aliquot to 200 μl McIlvaine buffer (made by mixing stock solutions of 0.1M citric acid and 0.2M sodium hydrogen phosphate to achieve pH of 5.0 and 7.0 for the assay of acid and alkaline activity, respectively) and 50 μl substrate (final concentration, 5 mM for pNPG and 10 mM for the natural substrates). […] Substrates used were the synthetic substrates based on p-nitrophenol (pNP-sugars), including the pNPa-gal (Sigma) and the natural substrates stachyose, raffinose and melibiose. In addition, substrate concentration dependence of the reaction was measured by varying the substrate concentrations from 0-10 mM. Km and Vmax values were calculated using Lineweaver-Burk plots.

Molecule: CC(=O)N[C@H]1[C@H](Oc2ccc([N+](=O)[O-])cc2)O[C@H](CO)[C@@H](O)[C@@H]1O [pNP-NacG]
- activity of recombinant Aga-I with nitrophenyl substrates [1]: no activity

Molecule: O=[N+]([O-])c1ccc(O[C@@H]2O[C@H](CO)[C@@H](O)[C@H](O)[C@H]2O)cc1 [pNP-βGlu]
- activity of recombinant Aga-I with nitrophenyl substrates [1]: no activity

Molecule: O=[N+]([O-])c1ccc(O[C@@H]2O[C@H](CO)[C@H](O)[C@H](O)[C@H]2O)cc1 [pNP-βGal]
- activity of recombinant Aga-I with nitrophenyl substrates [1]: some activity

Molecule: O=[N+]([O-])c1ccc(O[C@H]2O[C@H](CO)[C@@H](O)[C@H](O)[C@@H]2O)cc1 [pNP-αMan]
- activity of recombinant Aga-I with nitrophenyl substrates [1]: no activity

Molecule: OC[C@H]1O[C@H](O)[C@H](O)[C@@H](O)[C@H]1O [α-D-galactose]
- inhibition of the enzyme's activity by the reaction product [2]: strong inhibitor
- inhibition of the enzyme's activity by the reaction product ([2]; listed as α-galactose): strongly inhibited

Molecule: O=[N+]([O-])c1ccc(O[C@@H]2O[C@H](CO)[C@@H](O)[C@H](O)[C@@H]2O)cc1 [pNP-βMan]
- activity of recombinant Aga-I with nitrophenyl substrates [1]: no activity

Molecule: 6-O-α-D-galactopyranosyl-D-glucose [Melibiose]
- Activity (calculated specific activity) [1]: 124 nmol/mg protein/minute
- affinity as substrate [2]: low affinity

Molecule: C[C@@H]1O[C@@H](Oc2ccc([N+](=O)[O-])cc2)[C@@H](O)[C@H](O)[C@@H]1O [pNP-Fuc]
- activity of recombinant Aga-I with nitrophenyl substrates [1]: no activity

Molecule: OC[C@H]1O[C@H](OC[C@H]2O[C@H](OC[C@H]3O[C@H](O[C@]4(CO)O[C@H](CO)[C@@H](O)[C@@H]4O)[C@H](O)[C@@H](O)[C@@H]3O)[C@H](O)[C@@H](O)[C@H]2O)[C@H](O)[C@@H](O)[C@H]1O [Stachyose, O-α-D-galactopyranosyl-(1-6)-O-α-D-galactopyranosyl-(1-6)-O-α-D-glucopyranosyl-(1-2)-beta-D-fructofuranoside]
- Activity (calculated specific activity) [1]: 645 nmol/mg protein/minute

Molecule: OC[C@H]1O[C@H](OC[C@H]2O[C@H](O[C@]3(CO)O[C@H](CO)[C@@H](O)[C@@H]3O)[C@H](O)[C@@H](O)[C@@H]2O)[C@H](O)[C@@H](O)[C@H]1O [Raffinose, O-α-D-galactopyranosyl-(1-6)-O-α-D-glucopyranosyl-(1-2)-beta-D-fructofuranoside]
- Activity (calculated specific activity) [1]: 482 nmol/mg protein/minute
- affinity as substrate [2]: low affinity

Molecule: O=[N+]([O-])c1ccc(O[C@H]2O[C@H](CO)[C@@H](O)[C@H](O)[C@H]2O)cc1 [pNP-αGlu]
- activity of recombinant Aga-I with nitrophenyl substrates [1]: no activity

B1: recombinant Aga-I (alkaline-α-galactosidase I) (Cucumis melo) (protein)
chain: MTVGAGITISDANLTVLGNRVLSDVHNNITLTAAPGGGVMNGAFIGVQSDQIGSRRVFPIGKLIGLRFLCAFRFKLWWMTQRMGCSGQEVPFETQFLVVETRDGSNIAGNGEEGDAVYTVFLPILEGDFRAVLQGNDNNEIEICLESGDPSVDGFEGSHLVFVGAGSDPFETITYAVKSVEKHLQTFAHRERKKMPDILNWFGWCTWDAFYTDVTSDGVKKGLESFENGGIPPKFVIIDDGWQSVAKDATSADCKADNTANFANRLTHIKENYKFQKDGKEGERIENPALGLQHIVSYMKEKHATKYVYVWHAITGYWGGVSAGVKEMEQYESKIAYPVASPGVESNEPCDALNSITKTGLGLVNPEKVFNFYNEQHSYLASAGVDGVKVDVQNILETLGAGHGGRVKLARKYHQALEASISRNFQDNGIISCMSHNTDGLYSSKRNAVIRASDDFWPRDPASHTIHIASVAYNSLFLGEFMQPDWDMFHSLHPMAEYHGAARAVGGCAIYVSDKPGQHDFNLLKKLVLPDGSILRAKLPGRPTKDCLFTDPARDGKSLLKIWNLNDLSGVVGVFNCQGAGWCKVGKKNLIHDENPDTITGVIRAKDVSYLWKIAGESWTGDAVIFSHLAGEVVYLPQDASMPITLKPREFDVFTVVPVKELVNDIKFAPIGLIKMFNSGGAVKEMNHQPGSSNVSLKVRGSGPFGAYSSSKPKRVAVDSEEVEFMYDEGGLITIDLKVPEKELYLWDIRIEL
- Km [3]: 1.9 mM
- Km [4]: 1.8 mM

B2: Aga-I: Cucumis melo alkaline-α-galactosidase I, SEQ ID NO: 6, encoded by SEQ ID NO: 5 (protein)
chain: MTVGAGITISDANLTVLGNRVLSDVHNNITLTAAPGGGVMNGAFIGVQSDQIGSRRVFPIGKLIGLRFLCAFRFKLWWMTQRMGCSGQEVPFETQFLVVETRDGSNIAGNGEEGDAVYTVFLPILEGDFRAVLQGNDNNEIEICLESGDPSVDGFEGSHLVFVGAGSDPFETITYAVKSVEKHLQTFAHRERKKMPDILNWFGWCTWDAFYTDVTSDGVKKGLESFENGGIPPKFVIIDDGWQSVAKDATSADCKADNTANFANRLTHIKENYKFQKDGKEGERIENPALGLQHIVSYMKEKHATKYVYVWHAITGYWGGVSAGVKEMEQYESKIAYPVASPGVESNEPCDALNSITKTGLGLVNPEKVFNFYNEQHSYLASAGVDGVKVDVQNILETLGAGHGGRVKLARKYHQALEASISRNFQDNGIISCMSHNTDGLYSSKRNAVIRASDDFWPRDPASHTIHIASVAYNSLFLGEFMQPDWDMFHSLHPMAEYHGAARAVGGCAIYVSDKPGQHDFNLLKKLVLPDGSILRAKLPGRPTKDCLFTDPARDGKSLLKIWNLNDLSGVVGVFNCQGAGWCKVGKKNLIHDENPDTITGVIRAKDVSYLWKIAGESWTGDAVIFSHLAGEVVYLPQDASMPITLKPREFDVFTVVPVKELVNDIKFAPIGLIKMFNSGGAVKEMNHQPGSSNVSLKVRGSGPFGAYSSSKPKRVAVDSEEVEFMYDEGGLITIDLKVPEKELYLWDIRIEL
modifications: Cucumis melo
- pH of maximal α-galactosidase activity [5]: 8 pH
- galactosidase activity at pH 9 ([5]; pH 9, data not shown): activity was still observed
- pH range of highest galactosidase activity ([5]; recombinant Aga-I, data not shown): 7.5-8 pH

B3: Aga-II: Cucumis melo alkaline α-galactosidase II, SEQ ID NO: 10, encoded by SEQ ID NO: 9 (protein)
chain: MTVTPKISVNDGNLVVHGKTILTGVPDNIVLTPGSGLGLVAGAFIGATASNSKSLHVFPVGVLEGTRFLCCFRFKLWWMTQRMGTSGRDIPFETQFLLMESKGNDGEDPDNSSTIYTVFLPLLEGQFRAALQGNEKNEMEICLESGDNTVETNQGLSLVYMHAGTNPFEVITQAVKAVEKHTQTFLHREKKKLPSFLDWFGWCTWDAFYTDVTAEGVVEGLKSLSEGGAPPKFLIIDDGWQQIEAKPKDADCVVQEGAQFASRLSGIKENHKFQKNGNNYDQVPGLKVVVDDAKKQHKVKFVYAWHALAGYWGGVKPASPGMEHYDSALAYPVQSPGMLGNQPDIVVDSLAVHGIGLVHPKKVFNFYNELHSYLASCGIDGVKVDVQNIIETLGAGHGGRVTLTRSYHQALEASIARNFSDNGCIACMCHNTDSLYSAKQTAVVRASDDYYPRDPASHTIHISSVAYNSLFLGEFMQPDWDMFHSLHPTAEYHGAARAIGGCAIYVSDKPGNHNFDLLKKLVLPDGSVLRAQLPGRPTRDSLFNDPARDGTSLLKIWNMNKCSGVVGVFNCQGAGWCRITKKTRIHDESPGTLTTSVRAADVDAISQVAGADWKGDTIVYAYRSGDLIRLPKGASVPVTLKVLEYDLLHISPLKDIASNISFAPIGLLDMFNTGGAVEQVNVQVVEPIPEFDGEVASELTCSLPNDRPPTATITMKARGCRRFGLYSSQRPLKCSVDKVDVDFVYDEVTGLVTFEIPIPTEEMYRWNIEIQV
modifications: Cucumis melo
- pH of maximal α-galactosidase activity [5]: 8 pH

From US7560262B2, “Polynucleotide sequences encoding alkaline α-galactosidases and methods of using same” (The State of Israel - Ministry of Agriculture & Rural …, priority 2002, dated 2009)
